In experiment [1] the target is T1, D-xylonate dehydratase (XAD) (Caulobacter vibrioides, UniProt Q9A9Z2).
T1 construct: gene xylD; full-length gene in pET vector, N-terminal His tag, E. coli expression, Ni-TED and size exclusion, stored with MnCl2
Nature of the experiment: discontinuous thiobarbituric acid assay. The format is biochemical. The settings on record: 100 mM HEPES/NaOH pH 7.5, 37 °C, enzyme stored with 17 µmol MnCl2 per mg.

For experiment [2], the target named is T2, α-Ketoglutarate semialdehyde dehydrogenase (KGSADH) (Caulobacter vibrioides, UniProt A0A0H3C801).
T2 construct: gene xylA; full-length gene in pET vector, N-terminal His tag, E. coli expression, Ni-TED and size exclusion
T2 sequence (A0A0H3C801 1-478): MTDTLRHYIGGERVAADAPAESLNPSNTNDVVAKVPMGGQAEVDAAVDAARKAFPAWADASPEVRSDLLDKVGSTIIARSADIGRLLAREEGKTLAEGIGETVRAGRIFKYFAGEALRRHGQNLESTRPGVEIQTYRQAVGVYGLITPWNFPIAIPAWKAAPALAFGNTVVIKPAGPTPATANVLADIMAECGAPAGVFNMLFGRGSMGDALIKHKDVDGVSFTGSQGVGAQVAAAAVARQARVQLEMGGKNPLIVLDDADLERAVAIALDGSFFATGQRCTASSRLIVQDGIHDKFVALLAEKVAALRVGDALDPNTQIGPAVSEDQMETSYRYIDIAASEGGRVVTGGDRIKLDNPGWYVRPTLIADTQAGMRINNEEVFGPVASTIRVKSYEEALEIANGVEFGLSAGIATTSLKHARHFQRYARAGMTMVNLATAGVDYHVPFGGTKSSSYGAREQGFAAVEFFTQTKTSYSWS
The experiment is described as follows: biochemical. The settings on record: read-out: K estimate (mM), inhibition. Also on record: product inhibition constants from fits of rate equations to initial rate kinetics of purified enzyme. As to the method:
(§1) All reactions completed the substrate conversion in roughly 90 min, which is in agreement with model simulations that include product inhibition (Fig. 2c). However, a much slower conversion was observed than predicted, based on initial rate kinetics excluding product inhibition (Supplementary Note 1 and Supplementary Figs. 9–11). […] For XLA and KDXD, the inhibition constants for D-xylonate and KGSA, respectively, had to be fitted based on the conversion data, as these enzymes are analysed in coupled enzyme assays. The progress curves after single enzyme additions and the required model adjustments are shown and discussed in Supplementary Note 1, all enzyme kinetic parameters are shown in Supplementary Tables 3–7. […] As a final step in model construction, the one-pot cascade model was established. The results of the sequential pathway reconstruction were used to define the ‘reference state’ for the one-pot cascade conversion of D-xylose to α-[compound left out] (Supplementary Note 1). For this, we added the five enzymes together, using amounts close to those used in the sequential experiment (2.5 μg ml^−1 XDH, 0.8 μg ml^−1 XLA, 8.67 μg ml^−1 XAD, 0.5 μg ml^−1 KDXD and 10 μg ml^−1 KGSADH). The conversion of 5 mM D-xylose via the pathway intermediates to α-[compound left out] was followed using NMR (Fig. 3a). The model based on the isolated reaction kinetics predicted the first part of the pathway accurately, i.e., D-xylose oxidation, lactone cleavage and D-xylonate dehydration. […] S2 enzyme (Supplementary Table 5), measured using an off-line colorimetric assay. […] Product inhibition for the individual metabolites and combination of metabolites was determined in initial rate experiments in a linked KGSADH assay (Supplementary Fig. 7), while for α-[compound left out] semialdehyde the binding constant was estimated in a conversion assay (Supplementary Fig. 10b).

Experiment [3] has as its target T3, D-xylonate dehydratase (XAD) (Caulobacter vibrioides, UniProt A0A0H3C6H6).
T3 construct: gene xylD; full-length gene in pET vector, N-terminal His tag, E. coli expression
T3 sequence (A0A0H3C6H6 1-591): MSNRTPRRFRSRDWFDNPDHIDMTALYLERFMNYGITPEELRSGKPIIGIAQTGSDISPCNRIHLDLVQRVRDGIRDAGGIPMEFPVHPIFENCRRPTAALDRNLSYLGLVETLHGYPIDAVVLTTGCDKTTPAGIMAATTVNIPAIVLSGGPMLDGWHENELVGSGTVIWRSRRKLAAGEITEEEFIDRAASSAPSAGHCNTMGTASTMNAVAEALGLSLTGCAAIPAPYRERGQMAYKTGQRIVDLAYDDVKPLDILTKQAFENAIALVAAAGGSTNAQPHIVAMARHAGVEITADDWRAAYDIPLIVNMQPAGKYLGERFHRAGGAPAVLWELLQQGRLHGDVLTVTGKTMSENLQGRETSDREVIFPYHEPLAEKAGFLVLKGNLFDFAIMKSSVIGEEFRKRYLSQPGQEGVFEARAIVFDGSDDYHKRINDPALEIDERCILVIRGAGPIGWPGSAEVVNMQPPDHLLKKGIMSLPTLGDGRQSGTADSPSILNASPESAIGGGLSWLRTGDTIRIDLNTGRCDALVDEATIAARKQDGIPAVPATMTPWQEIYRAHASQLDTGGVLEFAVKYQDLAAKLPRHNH
Nature of the experiment: biochemical. Further details: product inhibition constants from fits of rate equations to initial rate kinetics of purified enzyme. The settings on record: read-out: K estimate (mM), inhibition. As to the method: as §1

Experiment [4] concerns the target T4, D-xylose dehydrogenase (XDH) (Caulobacter vibrioides, UniProt B8H1Z0).
T4 construct: gene xylB; full-length gene in pET vector, N-terminal His tag, E. coli expression, Ni-TED and size exclusion
T4 sequence (B8H1Z0 1-248): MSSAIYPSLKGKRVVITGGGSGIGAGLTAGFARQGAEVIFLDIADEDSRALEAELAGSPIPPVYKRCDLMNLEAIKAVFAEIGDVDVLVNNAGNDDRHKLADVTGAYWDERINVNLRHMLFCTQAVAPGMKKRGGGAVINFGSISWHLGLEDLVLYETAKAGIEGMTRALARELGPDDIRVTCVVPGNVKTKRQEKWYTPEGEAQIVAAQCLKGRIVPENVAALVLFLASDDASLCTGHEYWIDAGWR
The experiment is described as follows: biochemical. Further details: product inhibition constants from fits of rate equations to initial rate kinetics of purified enzyme. The settings on record: read-out: K estimate (mM), inhibition.

In article PMC7046635, “A combined experimental and modelling approach for the Weimberg pathway optimisation” (Nature Communications, 2020) one finds Km and Ki data, which are given here for five compounds.

T1 sequence (Q9A9Z2 whole entry): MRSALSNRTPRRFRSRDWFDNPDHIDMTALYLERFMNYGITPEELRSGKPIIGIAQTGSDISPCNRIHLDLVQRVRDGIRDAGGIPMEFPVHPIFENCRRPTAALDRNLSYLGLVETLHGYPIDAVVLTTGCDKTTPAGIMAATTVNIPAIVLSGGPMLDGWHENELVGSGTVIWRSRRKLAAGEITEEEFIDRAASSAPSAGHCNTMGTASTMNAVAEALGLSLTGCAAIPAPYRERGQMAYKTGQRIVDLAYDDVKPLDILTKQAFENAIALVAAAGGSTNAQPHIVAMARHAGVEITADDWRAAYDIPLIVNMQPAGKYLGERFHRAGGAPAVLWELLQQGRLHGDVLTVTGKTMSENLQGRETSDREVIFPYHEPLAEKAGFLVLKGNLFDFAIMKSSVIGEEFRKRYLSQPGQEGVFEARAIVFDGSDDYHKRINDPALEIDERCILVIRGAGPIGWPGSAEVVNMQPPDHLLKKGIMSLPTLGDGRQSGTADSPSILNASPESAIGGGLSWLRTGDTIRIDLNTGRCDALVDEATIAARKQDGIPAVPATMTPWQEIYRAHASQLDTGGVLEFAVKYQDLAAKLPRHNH

The Km is the substrate concentration at which the rate is half of its maximum. For `O=C(O)[C@H](O)[C@@H](O)[C@H](O)CO` [D-xylonate], the Km in experiment [1] amounted to 790 µM.

Regarding `O=C(O)CCC(=O)C(=O)O` [KG], the Ki in experiment [2] is 0.28 mM.

For the compound `O=C(O)C(=O)C[C@H](O)CO` [2-keto-3-deoxy-D-xylonate], the Ki in experiment [3] was 0.86 mM; in experiment [2], 0.021 mM.

Take `NC(=O)C1=CN([C@@H]2O[C@H](COP(=O)(O)OP(=O)(O)OC[C@H]3O[C@@H](n4cnc5c(N)ncnc54)[C@H](O)[C@@H]3O)[C@@H](O)[C@H]2O)C=CC1` [NADH]: the Ki in experiment [4] is 0.03 mM.

As to `O=C1O[C@H](CO)[C@H](O)[C@H]1O` [D-xylono-1,4-lactone], the Ki in experiment [4] is 0.54 mM.
